Measured values published in patent publication US7517889B2, “2,6-substituted-4-monosubstitutedamino-pyrimidine as prostaglandin D2 receptor antagonists” (Aventis Pharmaceuticals, Inc., priority 2004, dated 2009).
Where a name gives a salt, the structure may show the parent alone.

The compounds below were run against T1, DP receptor (Homo sapiens, UniProt Q13258) (assay: SPA cAMP assay in human LS174 T cells (human DP functional assay)). Conditions: inhibition of PGD2 (15 nM final) stimulated cAMP, LS174T cells expressing endogenous DP receptor.
T1 construct: the human cell line LS174T, which expresses the endogenous DP receptor; endogenous in cells; host or cells: LS174T human cell line
T1 sequence (Q13258 1-359): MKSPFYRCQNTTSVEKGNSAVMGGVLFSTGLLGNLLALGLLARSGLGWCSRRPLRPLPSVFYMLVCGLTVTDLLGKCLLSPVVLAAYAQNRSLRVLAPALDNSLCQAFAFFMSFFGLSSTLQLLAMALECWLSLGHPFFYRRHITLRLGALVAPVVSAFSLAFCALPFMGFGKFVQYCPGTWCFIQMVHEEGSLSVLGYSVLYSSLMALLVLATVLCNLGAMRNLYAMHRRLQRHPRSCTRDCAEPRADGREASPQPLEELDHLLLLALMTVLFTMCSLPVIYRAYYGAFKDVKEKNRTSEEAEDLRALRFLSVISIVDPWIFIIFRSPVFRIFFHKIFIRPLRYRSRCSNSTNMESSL
Format: cell-based
Protocol: The inhibitory effects of the compounds according to the invention are assessed in a human DP functional assay. A cAMP assay is employed using the human cell line LS174T, which expresses the endogenous DP receptor.
Protocol for SPA cAMP Assay in Human LS174 T Cells
• 1) Add equal volumes of tracer, antiserum and SPA anti-rabbit reagent to a bottle, ensuring that a sufficient volume of this mixture is prepared for the desired number of wells (150 μL/well). • 2) Mix thoroughly. • 3) This immunoreagent solution should be freshly prepared before each assay and not re-used.
Add 50 μL of […] IBMX into 100 mL PBS to make a final concentration of 100 μM and sonicate at 30° C. for 20 minutes.
Before each assay, it is freshly prepared. Add 3 μL of 10 mM stock solution to 20 mL DMSO, mix it thoroughly, and transfer 10 mL to 40 mL PBS.
Compound dilution is carried out in Biomex 2000 (Beckman) using Method 1_cAMP DP 11 points.
5 μL of each compound from the 10 mM stock compound plates is transferred to the wells of a 96-well plate respectively as below.
Fill the plate with 45 μL of DMSO except column 7 is filled with 28 μL DMSO. Pipette column 1 thoroughly, and transfer 12 μL into column 7 parallel. Perform 1:10 serial dilution from column 1 to column 6 and from column 7 to column 11 by transfer 5 μL to 45 μL DMSO to make following concentrations:
Fill a new 96-well plate with 247.5 μL of compound dilution buffer. Transfer 2.5 μL of serially diluted compounds from above plate to the new plate (1:100 dilution) as following:
Cell Growth • 1. […] Remove growth medium from cells. Cells in T165 flask are washed twice with 4 mL Trypsin followed by incubation at 37° C. and 5% CO2 for 3 minutes. • 4. Add 10 mL of medium and pipette thoroughly to separate the cells and count the cells. • 5. […] Assay Procedure Day 1 • Seed 45,000 cells/well in 200 μL medium in 96-well plates. Incubate the cell plate at 37° C., 5% CO2 and 95% humidity overnight. Day 2 • 1. Perform compound dilution. • 2. Prepare assay buffer, lysis buffer 1 & 2, PGD2 and standard. • 3. Aspirate media from the cells and add 100 μL of compound solution using Zymark Sciclone-ALH/FD protocol cAMP DP. • 4. Incubate the cells at 37° C., 5% CO2 and 95% humidity for 15 minutes. • 5. […] Aspirate media from the cells and add 50 μL of lysis buffer 1 using Zymark protocol cAMP DP lysis, and incubate at room temperature with shaking for 30 minutes. • 7. Add 150 μL immunoreagent to all wells (a total volume of 200 μL/well). • 8. Seal the plates and shake for 2 minutes, put into the chamber of the Wallac microtitre plate μ scintillation counter for 16 hours. […] Data Processing Set up standard curve of cAMP versus CPM.
The cAMP concentrations (pmol/mL) of unknown samples are calculated from a standard curve of cAMP versus CPM. % inhibition is calculated using the following formula: […]

Compound	IC50
COc1ccc(CCNc2cc(-c3ccc(C(C)=O)cc3)nc(OC)n2)cc1 [Example 10(h), 1-(4-{2-Methoxy-6-[2-(4-methoxy-phenyl)-ethylamino]-pyrimidin-4-yl}-phenyl)-ethanone]	6.3 nM
CCOC(=O)C(C)(C)Oc1cccc(-c2cc(NCCc3ccc(OC)cc3)nc(OC)n2)c1 [Example 22(a), 2-(3-{2-Methoxy-6-[2-(4-methoxy-phenyl)-ethylamino]-pyrimidin-4-yl}-phenoxy)-2-methyl-propionic acid ethyl ester]	60 nM
CCOC(=O)OC(C)OC(=O)C(C)(C)c1cccc(-c2cc(NCCc3ccc(Cl)cc3Cl)nc(OC)n2)c1 (stereo not drawn) [Example 50, 2-(3-{6-[2-(2,4-Dichloro-phenyl)-ethylamino]-2-methoxy-pyrimidin-4-yl}-phenyl)-2-methyl-propionic acid 1-ethoxycarbonyloxy-ethyl ester hydrochloride]	4 nM
COC(=O)c1cccc(Oc2cc(NCCc3ccc(OC)c(OC)c3)nc(OC)n2)c1 [Example (63), 3-{6-[2-(3,4-dimethoxy-phenyl)-ethylamino]-2-methoxy-pyrimidin-4-yloxy}-benzoic acid methyl ester]	6250 nM
COCC(=O)NCc1cc(-c2cc(NCCc3ccc(OC)cc3)nc(OC)n2)ccc1F [Example 28, N-(2-Fluoro-5-{2-methoxy-6-[2-(4-methoxy-phenyl)-ethylamino]-pyrimidin-4-yl}-benzyl)-2-methoxy-acetamide hydrochloride]	9 nM
COc1nc(NCCc2ccc(Cl)cc2Cl)cc(-c2cccc(C(C)(C)C(=O)N3CCOCC3)c2)n1 [Example 95(c), 2-(3-{6-[2-(2,4-Dichloro-phenyl)-ethylamino]-2-methoxy-pyrimidin-4-yl}-phenyl)-2-methyl-1-morpholin-4-yl-propan-1-one]	281 nM
COc1nc(NCCc2ccc(OC(F)F)cc2)cc(-c2cccc(NC(C)=O)c2)n1 [Example 46(c), N-(3-{6-[2-(4-Difluoromethoxy-phenyl)-ethylamino]-2-methoxy-pyrimidin-4-yl}-phenyl)-acetamide hydrochloride]	4 nM
COc1ccc(CCNc2cc(-c3ccncc3)nc(OC)n2)cc1 [Example 35(q), [2-(4-Methoxy-phenyl)-ethyl]-(2-methoxy-6-pyridin-4-yl-pyrimidin-4-yl)-amine]	8 nM
COc1ccc(CCNc2cc(-c3ccc(N(C)C)cc3)nc(OC)n2)cc1 [Example 10(I)]	42 nM
CCOC(=O)C1(c2cccc(-c3cc(NCCc4ccc(Cl)cc4Cl)nc(OC)n3)c2)CCOCC1 [Example 80(c), 4-(3-{6-[2-(2,4-Dichloro-phenyl)-ethylamino]-2-methoxy-pyrimidin-4-yl}-phenyl)-tetrahydro-pyran-4-carboxylic acid ethyl ester]	223 nM
COc1nc(NC(C)Cc2ccc(Cl)cc2)cc(-c2ccc(OC)c(OC)c2)n1 (stereo not drawn) [Example 43(a), [2-(4-Chloro-phenyl)-1-methyl-ethyl]-[6-(3,4-dimethoxy-phenyl)-2-methoxy-pyrimidin-4-yl]-amine]	1730 nM
COc1nc(NCCc2c(F)cccc2Cl)cc(-c2cccc(C=O)c2)n1 [Example 35(v), 3-{6-[2-(2-chloro-6-fluoro-phenyl)-ethylamino]-2-methoxy-pyrimidin-4-yl}-benzaldehyde]	3.6 nM
COc1ccc(CCNc2cc(-c3cccnc3)nc(OC)n2)cc1 [Example 35(x), [2-methoxy-(6-pyridin-3-yl)-pyrimidin-4-yl]-[2-(4-methoxy-phenyl)-ethyl]-amine]	10 nM
COc1ccc(CCNc2cc(-c3ccc(C(F)F)s3)nc(OC)n2)cc1 [Example 12, [6-(5-Difluoromethyl-thiophen-2-yl)-2-methoxy-pyrimidin-4-yl]-[2-(4-methoxy-phenyl)-ethyl]-amine]	11 nM
COc1cccc(-c2cc(NCCc3cccnc3)nc(OC)n2)c1 [Example 43(i), [2-Methoxy-6-(3-methoxy-phenyl)-pyrimidin-4-yl]-(2-pyridin-3-yl-ethyl)-amine hydrochloride]	248 nM
COc1nc(NCCc2ccc3c(c2)OC(F)(F)O3)cc(-c2ccc[n+]([O-])c2)n1 [Example 21(b), [2-(2,2-Difluoro-benzo[1,3]dioxol-5-yl)-ethyl]-[2-methoxy-6-(1-oxy-pyridin-3-yl)-pyrimidin-4-yl]-amine]	2150 nM

Second part, the compound after the results:

IC50	Compound
2.3 nM	COc1ccc(CCNc2cc(-c3ccc(C(N)=O)cc3)nc(OC)n2)cc1 [Example 10(e), 4-{2-Methoxy-6-[2-(4-methoxy-phenyl)-ethylamino]-pyrimidin-4-yl}-benzamide]
0.1 nM	COc1ccc(CCNc2cc(-c3cccc(Cc4nnn[nH]4)c3)nc(OC)n2)cc1 [Example 24(b), [2-(4-Methoxy-phenyl)-ethyl]-{2-methoxy-6-[3-(1H-tetrazol-5-ylmethyl)-phenyl]-pyrimidin-4-yl}-amine hydrochloride]
0.3 nM	CNC(=O)c1ccc(-c2cc(NCCc3ccc(OC)cc3)nc(OC)n2)s1 [Example 62, 5-{2-Methoxy-6-[2-(4-methoxy-phenyl)-ethylamino]-pyrimidin-4-yl}-thiophene-2-carboxylic acid methylamide trifluoroacetate]
0.7 nM	COc1ccc(CCNc2cc(-c3cnc4ccccc4c3)nc(OC)n2)cc1 [Example 10(b), [2-(4-Methoxy-phenyl)-ethyl]-(2-methoxy-6-quinolin-3-yl-pyrimidin-4-yl)-amine]
0.55 nM	COc1ccc(CCNc2cc(-c3ccc(CO)s3)nc(OC)n2)cc1 [Example 9(a), (5-{2-Methoxy-6-[2-(4-methoxy-phenyl)-ethylamino]-pyrimidin-4-yl}-thiophen-2-yl)-methanol]
0.6 nM	COc1nc(NCCc2c(F)cccc2Cl)cc(-c2cccc(COCC(=O)O)c2)n1 [Example 56, (3-{6-[2-(2-Chloro-6-fluoro-phenyl)-ethylamino]-2-methoxy-pyrimidin-4-yl}-benzyloxy)-acetic acid]
< 1 nM	COc1nc(NCCc2ccc(Cl)cc2Cl)cc(-c2cccc(C3(C(=O)NS(C)(=O)=O)CCOCC3)c2)n1 [Example 80(b), N-[4-(3-{6-[2-(2,4-Dichloro-phenyl)-ethylamino]-2-methoxy-pyrimidin-4-yl}-phenyl)-tetrahydro-pyran-4-carbonyl]-methanesulfonamide]
2 nM	COc1ccc(CCNc2cc(-c3ccccc3NS(C)(=O)=O)nc(OC)n2)cc1 [Example 10(d), N-(2-{2-Methoxy-6-[2-(4-methoxy-phenyl)-ethylamino]-pyrimidin-4-yl}-phenyl)-methanesulfonamide]
3.7 nM	COc1ccc(CCNc2cc(-c3cccc(-c4nnc(C)[nH]4)c3)nc(OC)n2)cc1 [Example 37, {2-Methoxy-6-[3-(5-methyl-2H-[1,2,4]triazol-3-yl)-phenyl]-pyrimidin-4-yl}-[2-(4-methoxy-phenyl)-ethyl]-amine]
< 1 nM	COc1nc(NCCc2ccc(Cl)cc2Cl)cc(-c2cccc(C(C)(C)C(=O)Nc3nnn[nH]3)c2)n1 [Example 95(e), 2-(3-{6-[2-(2,4-Dichloro-phenyl)-ethylamino]-2-methoxy-pyrimidin-4-yl}-phenyl)-N-(1H-tetrazol-5-yl)-isobutyramide]
0.16 nM	COc1nc(NCCc2ccc(Cl)cc2Cl)cc(-c2ccc(C(=O)O)s2)n1 [Example 87, 5-{6-[2-(2,4-Dichloro-phenyl)-ethylamino]-2-methoxy-pyrimidin-4-yl}-thiophene-2-carboxylic acid]
